The values below come from ChEMBL document CHEMBL1145240, “Discovery of novel conformationally constrained tropane-based biaryl and arylacetylene ligands as potent and selective norepinephrine transporter inhibitors and potential antidepressants” (Bioorg Med Chem Lett, 2005).

The structures appear in SMILES notation.

Experiment [1] concerns the target T1, Norepinephrine transporter (Rattus norvegicus, UniProt Q9WTR4). Nature of the experiment: Inhibitory constant against reuptake of [3H]NE at norepinephrine transporter of rat parietal-occipital cortex.
Experiment [2] concerns the target Sodium-dependent serotonin transporter (Rattus norvegicus, UniProt P31652). Description: Inhibitory constant against reuptake of [3H]5-HT at serotonin transporter of rat […]. The format is tissue-based.
Experiment [3] has as its target Muscarinic acetylcholine receptor. Description: Inhibition of [3H]QNB binding to muscarinic receptor of rat cortex.
For experiment [4], the target named is Sodium-dependent dopamine transporter (Rattus norvegicus, UniProt P23977). Nature of the experiment: Inhibitory constant against reuptake of [3H]-DA at dopamine transporter of rat striatal membranes. It counts as cell membranes, Membrane.
In experiment [5] the target is T1, Norepinephrine transporter. Description: Inhibitory constant for [3H]NE reuptake at norepinephrine transporter of rat parietal-occipital cortex.

Chain of Sodium-dependent serotonin transporter (P31652 whole entry): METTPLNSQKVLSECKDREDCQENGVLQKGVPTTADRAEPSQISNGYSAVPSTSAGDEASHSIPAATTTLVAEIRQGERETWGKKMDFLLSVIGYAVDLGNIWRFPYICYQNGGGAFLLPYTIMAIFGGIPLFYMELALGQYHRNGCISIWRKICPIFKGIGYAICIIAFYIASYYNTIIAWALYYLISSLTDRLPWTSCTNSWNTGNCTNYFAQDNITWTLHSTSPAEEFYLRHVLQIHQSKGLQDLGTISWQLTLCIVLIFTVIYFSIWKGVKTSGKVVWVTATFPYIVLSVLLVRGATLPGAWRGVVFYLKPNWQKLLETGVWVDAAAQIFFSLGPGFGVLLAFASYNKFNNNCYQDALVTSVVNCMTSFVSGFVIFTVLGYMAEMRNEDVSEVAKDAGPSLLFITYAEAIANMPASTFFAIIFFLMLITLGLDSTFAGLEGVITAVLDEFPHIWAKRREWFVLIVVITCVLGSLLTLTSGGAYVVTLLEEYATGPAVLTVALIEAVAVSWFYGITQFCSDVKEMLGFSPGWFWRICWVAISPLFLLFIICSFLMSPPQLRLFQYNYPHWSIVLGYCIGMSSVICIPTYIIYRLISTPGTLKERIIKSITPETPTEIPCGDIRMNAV
T1 sequence (Q9WTR4 whole entry): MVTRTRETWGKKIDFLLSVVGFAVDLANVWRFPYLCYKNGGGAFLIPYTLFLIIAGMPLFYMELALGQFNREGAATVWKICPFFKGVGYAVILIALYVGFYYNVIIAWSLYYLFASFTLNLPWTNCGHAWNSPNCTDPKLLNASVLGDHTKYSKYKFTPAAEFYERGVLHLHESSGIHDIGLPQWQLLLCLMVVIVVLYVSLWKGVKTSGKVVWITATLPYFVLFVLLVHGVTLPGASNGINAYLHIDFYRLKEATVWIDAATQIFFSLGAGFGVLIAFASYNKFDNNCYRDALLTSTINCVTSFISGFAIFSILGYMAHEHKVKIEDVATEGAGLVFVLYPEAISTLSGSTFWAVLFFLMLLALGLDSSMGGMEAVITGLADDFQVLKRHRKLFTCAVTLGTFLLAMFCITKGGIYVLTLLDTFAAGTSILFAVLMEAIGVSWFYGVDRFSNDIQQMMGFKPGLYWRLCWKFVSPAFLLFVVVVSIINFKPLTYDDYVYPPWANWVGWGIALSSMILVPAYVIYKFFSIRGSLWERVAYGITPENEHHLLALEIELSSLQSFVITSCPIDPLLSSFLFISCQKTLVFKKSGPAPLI
Chain of Sodium-dependent dopamine transporter (P23977 whole entry): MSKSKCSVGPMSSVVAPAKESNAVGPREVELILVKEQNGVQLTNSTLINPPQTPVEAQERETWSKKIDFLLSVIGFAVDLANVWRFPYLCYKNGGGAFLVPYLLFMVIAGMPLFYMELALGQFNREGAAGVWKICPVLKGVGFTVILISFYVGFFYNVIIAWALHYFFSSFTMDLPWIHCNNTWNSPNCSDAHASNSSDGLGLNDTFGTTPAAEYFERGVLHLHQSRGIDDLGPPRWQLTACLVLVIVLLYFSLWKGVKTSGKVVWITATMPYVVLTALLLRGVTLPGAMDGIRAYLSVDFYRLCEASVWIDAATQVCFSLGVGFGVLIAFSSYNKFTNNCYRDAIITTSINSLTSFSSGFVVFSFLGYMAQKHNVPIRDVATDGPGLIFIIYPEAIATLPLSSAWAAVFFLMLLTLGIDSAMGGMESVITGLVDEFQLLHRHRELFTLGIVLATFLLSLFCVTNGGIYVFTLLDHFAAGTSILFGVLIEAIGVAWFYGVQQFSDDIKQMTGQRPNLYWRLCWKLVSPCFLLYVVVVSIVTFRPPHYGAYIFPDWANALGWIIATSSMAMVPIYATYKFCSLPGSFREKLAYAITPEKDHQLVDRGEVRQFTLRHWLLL

A word on the Ki: it is a measure of affinity in units of concentration, obtained from inhibition or displacement. As for `COC(=O)C1C2CC3CCC1N3C/C2=C\c1ccc(-c2cccc(F)c2)cc1` (configuration not stated), the inhibition constant (Ki) in experiment [1] is 0.005 µM; in experiment [2] it was 0.138 µM; in experiment [3], over 10 µM; in experiment [4], 0.646 µM.
`COC(=O)C1C2CC3CCC1N3C/C2=C\c1ccc(-c2cccc(C(F)(F)F)c2)cc1` (configuration not stated): the Ki stood at 0.0088 µM in experiment [1], 1.17 µM in experiment [2], 7.06 µM in experiment [3] and 0.556 µM in experiment [4].
The like results for `COC(=O)C1C2CC[C@@H]3C[C@@H]1/C(=C/c1ccc(-c4ccc(F)c(F)c4)cc1)CN23` (some centres not stated) were, in that order, 0.0008 µM, 0.295 µM, 3.4 µM and 0.106 µM.
`COC(=O)C1C2CC3CCC1N3C/C2=C\c1ccc(-c2ccccc2OC)cc1` (configuration not stated): the inhibition constant (Ki) in experiment [1] was 0.0065 µM; in experiment [2], 1.34 µM; in experiment [3], over 10 µM; in experiment [4] it was 0.787 µM.
In the case of `COC(=O)C1C2CC[C@@H]3C[C@@H]1/C(=C/c1ccc(-c4cc(F)cc(F)c4)cc1)CN23` (some centres not stated), the Ki in experiment [1] amounted to 0.0013 µM; in experiment [2] it was 0.0012 µM; in experiment [3], 2.83 µM; in experiment [4] it was 0.228 µM.
Consider `COC(=O)C1C2CC3CCC1N3C/C2=C\C#Cc1ccccc1` (configuration not stated), for which the Ki in experiment [1] was over 10 µM; in experiment [2] it was 0.207 µM; in experiment [3] it was 11.9 µM; in experiment [4], over 10 µM.
As to `COC(=O)C1C2CC3CCC1N3C/C2=C\C#Cc1cccc(F)c1` (configuration not stated), the inhibition constant (Ki) was 2.11 µM in experiment [1], 0.317 µM in experiment [2], 13.5 µM in experiment [3] and over 10 µM in experiment [4].
Consider `COC(=O)C1C2CC3CCC1N3C/C2=C\c1ccc(-c2ccc(SC)cc2)cc1` (configuration not stated), for which the Ki was 0.062 µM in experiment [1], 1.08 µM in experiment [2], over 10 µM in experiment [3] and 1.05 µM in experiment [4].
In the case of `COC(=O)C1C2CC3CCC1N3C/C2=C\c1ccc(-c2ccsc2)s1` (configuration not stated), the inhibition constant (Ki) in experiment [1] was 0.0059 µM; in experiment [2], 0.032 µM; in experiment [3], 2.14 µM; in experiment [4], 0.114 µM.
For `COC(=O)C1C2CC3CCC1N3C/C2=C\C#Cc1ccsc1` (configuration not stated), the Ki is 0.086 µM in experiment [2], 2.74 µM in experiment [3], over 10 µM in experiment [4] and 0.022 µM in experiment [5].
As to `COC(=O)C1C2CC3CCC1N3C/C2=C\C#Cc1ccc(F)c(F)c1` (configuration not stated), the inhibition constant Ki in experiment [1] came to 0.11 µM; in experiment [2], 0.069 µM; in experiment [3], 7.09 µM; in experiment [4] it was 3.15 µM.
`COC(=O)C1C2CC3CCC1N3C/C2=C\c1ccc(-c2ccc(SC)cc2)s1` (configuration not stated) came in with a Ki in experiment [3] of over 10 µM.
Regarding `COC(=O)C1C2CC3CCC1N3C/C2=C\C#Cc1cc(F)ccc1F` (configuration not stated), the inhibition constant Ki was 1.72 µM in experiment [1], 0.215 µM in experiment [2], over 10 µM in experiment [3] and over 10 µM in experiment [4].
Consider `COC(=O)C1C2CC3CCC1N3C/C2=C\C#Cc1ccc(F)cc1` (configuration not stated), for which the Ki in experiment [1] is 0.104 µM; in experiment [2] it was 0.017 µM; in experiment [3] it was 15.1 µM; in experiment [4], over 10 µM.
On to `COC(=O)C1C2CC3CCC1N3C/C2=C\C#Cc1cccs1` (configuration not stated), for which the Ki in experiment [1] was 1.57 µM; in experiment [2], 0.142 µM; in experiment [3], 13.9 µM; in experiment [4], over 10 µM.
In the case of `COC(=O)C1C2CC3CCC1N3C/C2=C\C#Cc1c(F)cccc1F` (configuration not stated), the Ki in experiment [1] is 0.0053 µM; in experiment [2], 0.032 µM; in experiment [3], over 10 µM; in experiment [4] it was over 10 µM.
For the molecule `COC(=O)C1C2CC3CCC1N3C/C2=C\c1ccc(-c2ccc(F)cc2)cc1` (configuration not stated), the Ki in experiment [1] came to 0.053 µM; in experiment [2], 1.39 µM; in experiment [3], 1.06 µM; in experiment [4], 0.161 µM.
Regarding `COC(=O)C1C2CC3CCC1N3C/C2=C\C#Cc1ccc(C)c(F)c1` (configuration not stated), the Ki in experiment [1] was 0.052 µM; in experiment [2] it was 0.914 µM; in experiment [3], over 10 µM; in experiment [4], 7.07 µM.
The like results for `COC(=O)C1C2CC3CCC1N3C/C2=C\c1ccc(-c2cccc(OC)c2)cc1` (configuration not stated) were, in that order, 0.0094 µM, 0.346 µM, 4.06 µM and 0.114 µM.
The like results for `COC(=O)C1C2CC3CCC1N3C/C2=C\c1ccc(-c2ccccc2F)cc1` (configuration not stated) were, in that order, 0.393 µM, 0.466 µM, over 10 µM and 3.4 µM.
